This note sets out measurements from patent US8741932B2, “Imidazopyridine derivatives” (Piramal Enterprises Limited, priority 2009, dated 2014).

Where two headings read alike, the source gives them in different places.

As usually defined, the IC50 is the point on the concentration scale where inhibition reaches its midpoint. As usually defined, the inhibition is the relative decrease from the control value, in per cent.

Experiment [1] deals with STAT3. Kind of experiment: STAT3 bioassay (Hela Stat3-luc, luciferase). It is filed as cell-based. The note with it: Oncostatin M induction. As for the experimental part:
Cells were seeded (Hela Stat3-luc, ATCC P/N 30-2002) in a white 96 well plate (Nunc cat.no.136101) at a density of 20,000cells/well in 179 μl volume per well (DMEM from Sigma containing 10% FCS). The plate was incubated for 24 hours at 37° C./5% CO2. The cells (wells in triplicates) were then treated with 1 μl/well of 200× stock of the desired compound concentration prepared in 100% DMSO. Curcumin was used as a standard or positive control, added 10 μg/ml in triplicate. DMSO was used as medium control (1 μl/well added in triplicates). The plate was incubated at 37° C./5% CO2 for 1 hour. 20 μl/well Oncostatin M (Oncostatin M, Human, Recombinant, E. coli, Cat.No. 496260, 10 μg from Calbiochem) was added to treated wells, induction control (in triplicate) (1000 ng/ml stock prepared in serum free medium to get final concentration 100 ng/ml). The plate was then incubated for 7-8 hours at 37° C./5% CO2 for induction. A typical assay would consist of triplicate of medium control, triplicate of induction control, triplicate of positive/standard control and test compounds at desired concentration in triplicates. For termination Luciferase assay protocol was followed where the culture medium was removed from all the wells.
200 μl well of PBS was added to remove traces of medium and compound. The PBS was discarded. 40 μl/well of 1× lysis buffer was added to all the wells. The plate was incubated at RT for 20 minutes with intermittent shaking. 100 μl/well of LAB reagent was added to all the wells in dark. {LAB reagent for 1 plate=8 ml Luciferase assay buffer (LAB)+1 ml Coenzyme A (Sigma cat no. C3019) (2.1 mg/ml stock in LAB)+530 μL of ATP (Sigma cat.no.A2383) (5.85 mg/ml stock in LAB)+1 ml luciferin reagent (Promega cat no.245355) (2 mg/ml stock in LAB, protect from light)}.
The luminescence was immediately read on polar star. The values were expressed as percentage inhibition, in terms of treated values to that STAT3 (induction control). IC50 values were calculated from graphs using these percentages.

Experiment [2] relates to IL-6. Kind of experiment: Human monocyte assay, LPS-stimulated IL-6. The format is cell-based. Particulars: human monocytes, 1 μg/ml LPS, 5 hours. In a few lines: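 Adherent human PBMC-derived monocytes (2×10^4/well) were cultured 48 h, preincubated 30 min with compound or 0.5% DMSO, then stimulated with 1 μg/ml E. coli LPS for 5 h at 37° C. TNF-α and IL-6 in supernatants were measured by ELISA.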

Experiment [3] has as its target T1, PI3Kα kinase (Homo sapiens, UniProt P42336).
T1 construct: purchased Millipore, USA
Briefly: Kinase assay (PI3Kα). It is filed as biochemical. The note with it: for IC50: read-out: IC50 (μM) for PI3K inhibition. As for the experimental part: The kinase reaction was carried out in a 25 μL volume in a 1.5 mL microcentrifuge tube. The reaction mixture consisted of kinase buffer (10 mM Hepes, pH 7.5, 50 mM MgCl2), 20 ng PI3Kα kinase (Millipore, USA), 12.5 μg phosphotidylinositol (PI), 10 μM ATP and 1 μCi ^32γ P […]. […] The reactions were incubated at 30° C. for 20 minutes and were terminated by adding 1:1 mixture of MeOH and CHCl3. The tube contents were mixed on a vortex mixer and centrifuged at 10000 rpm for 2 minutes. 10 μL of the organic (lower) phase was spotted on to a TLC plate (silica, mobile phase: n-propanol and 2 M glacial acetic acid in 65:35 ratio). The plates were dried and exposed to an X-ray film. The bands appearing as a result of ^32γ P incorporation in PI were quantitated using the Quantityl)ne (BioRad, USA) densitometry program. PI-103 (Calbiochem, USA) was used as a standard.

Experiment [4] concerns the target T2, mTOR (Homo sapiens, UniProt P42345).
T2 construct: endogenous in cells; host or cells: A2780 ovarian cell line (ATCC)
Briefly: mTOR activity assay (cell ELISA, Phospho-AKT Ser 473, A2780 cells). The format is cell-based. The procedure: Seed cells (Ovarian cell line A2780, ATCC) were plated in a 96 well microtitre plate at a density of 50,000 cells/cm^2 in appropriate complete cell culture medium. The cells were allowed to adhere for 18-24 hours. The cells were allowed to starve for 24 hours. […] Then the cells were stimulated with 20% FCS for 30 minutes. A typical assay would consist of a set of unstimulated cells, a set of stimulated cells and a set of cells treated with compounds of present invention and a set of cells treated with the stimulator. The medium was discarded. The cells were fixed with 100 μL of 3.7% formaldehyde for 15 minutes. The formaldehyde was discarded by inverting the plate and tapping it on a thick tissue paper layer to remove traces. The cells were washed and permeabilized with 200 μL PBS+Triton-X 100 solution (hereafter referred to as PBS-Triton, containing 0.1% triton-X 100 in 1×PBS) three times, incubating the cells each time for 5 minutes. 100 μL blocking solution (10% FCS in PBS-Triton) was added and incubated for 1 hour at 25° C. The blocking solution was discarded and cells were incubated with the primary antibody in PBS-Triton at a dilution of 1:500 for 1 hour at RT (25° C.). [The primary antibody is Phospho-AKT (Ser 473); Cell Signaling; Cat. No. 9271]. The primary antibody solution was discarded and the cells were washed 3 times with PBS-Triton solution and incubated with the HRP-conjugated secondary antibody in PBS-Triton at a dilution of 1:500 for 1 hour at RT (25° C.). The cells were washed 3 times with PBS-Triton followed by two washes with PBS (to remove traces of triton-X 100). The OPD (o-phenylene diamine dihydrochloride) substrate was prepared for detection of the signal by dissolving one tablet set (two tablets) of SigmaFast OPD (Sigma, Cat No. P9187) in 20 mL distilled water. It should be protected from light. 100 μL OPD solutions was added to the wells and the plate was incubated in the dark for 3-5 minutes (depending upon the development of the color). The reaction was stopped by adding 50 μL 2 N H2SO4. The absorbance was measured at 490 nm. The values were expressed in the treated samples, in terms of percentage or fold decrease in AKT phosphorylation with respect to the induced sample. PI-103 (Calbiochem, USA) was used as a standard.
(In an ELISA, binding on a coated surface is turned into a signal by an enzyme label.)

In experiment [5] the test system is TNF-α. Kind of experiment: Human monocyte assay, LPS-stimulated TNF-α. The format is cell-based. Particulars: human monocytes, 1 μg/ml LPS, 5 hours. The procedure:
The assay was designed as in the reference, Physiol.
Peripheral blood mononuclear cells (hPBMC) were harvested from human blood and suspended in RPMI 1640 culture medium containing 10% FCS, 100 U/mL penicillin and […] streptomycin (assay medium). Monocytes in the hPBMCs were counted using a Coulter Counter following which the cells were resuspended at 2×10^5 monocytes/mL. A cell suspension containing 2×10^4 monocytes was aliquoted per well of a 96-well plate. Subsequently, the hPBMCs were incubated for 4-5 hours at 37° C., 5% CO2 (During the incubation, the monocytes adhered to the bottom of 96-well plastic culture plate). Following the incubation, the non-adherent lymphocytes were washed with assay medium and the adherent monocytes re-fed with assay medium. After a 48-hour incubation period (37° C., 5% CO2), monocytes were pretreated with various concentrations of representative compounds of present invention (refer to table 6 and 7) (prepared in DMSO) or vehicle (0.5% DMSO) for 30 minutes and stimulated with 1 μg/ml LPS (Escherchia coli 0111:B4, Sigma Chemical Co., St. Louis, Mo.). The incubation was continued for 5 hours at 37° C., 5% CO2. Supernatants were harvested, assayed for IL-6 and TNF-α by ELISA as described by the manufacturer (BD Biosciences, USA). Dexamethasone (10 μM) was used as standard for this assay. […] Biological results for both IL-6 and TNFα are indicated in Table 6 and Table 7 respectively.

Experiment [6] deals with H460. Briefly: Cytotoxicity assay (propidium iodide), H460. The note with it: Homo sapiens, NCI-H460; H460 (C1b, lung); 48 hours. It is filed as cell-based.
For experiment [7], the system named is A549. Briefly: Cytotoxicity assay (propidium iodide), A549. The format is cell-based. Particulars: Homo sapiens; A549 (C1a, lung); 48 hours.
The subject of experiment [8] is A2780. Briefly: Cytotoxicity assay (propidium iodide), A2780. It is filed as cell-based. The note with it: Homo sapiens; A2780 (C3a, ovarian); 48 hours.
Experimental: Cells from cell lines as mentioned in the table given below were seeded at a density of 3000 cells/well in a white opaque 96-well plate. Following incubation at 37° C./5% CO2 for a period of 18-24 hours, the cells were treated with various concentrations (stock solution was prepared in DMSO and subsequent dilutions were made in media as per ATCC guidelines) of the representative compounds of present invention (refer table 3) for a period of 48 hours. At the end of treatment, the spent culture medium was discarded, the cells were washed with 1×PBS and 200 μl of 7 μg/ml propidium iodide was added to each well. The plates were frozen at −70° C. for at least 24 hours. For analysis, the plates were brought to RT, allowed to thaw and were read in PolarStar fluorimeter with the fluorescence setting. The percentage of viable cells in the non treated set of wells was considered to be 100 and the percentage viability following treatment was calculated accordingly. IC50 values were calculated from graphs plotted using these percentages.
[9] abbreviates: read-out: % Inhibition of mTOR activity at 1 μM.

T1 sequence (P42336 whole entry): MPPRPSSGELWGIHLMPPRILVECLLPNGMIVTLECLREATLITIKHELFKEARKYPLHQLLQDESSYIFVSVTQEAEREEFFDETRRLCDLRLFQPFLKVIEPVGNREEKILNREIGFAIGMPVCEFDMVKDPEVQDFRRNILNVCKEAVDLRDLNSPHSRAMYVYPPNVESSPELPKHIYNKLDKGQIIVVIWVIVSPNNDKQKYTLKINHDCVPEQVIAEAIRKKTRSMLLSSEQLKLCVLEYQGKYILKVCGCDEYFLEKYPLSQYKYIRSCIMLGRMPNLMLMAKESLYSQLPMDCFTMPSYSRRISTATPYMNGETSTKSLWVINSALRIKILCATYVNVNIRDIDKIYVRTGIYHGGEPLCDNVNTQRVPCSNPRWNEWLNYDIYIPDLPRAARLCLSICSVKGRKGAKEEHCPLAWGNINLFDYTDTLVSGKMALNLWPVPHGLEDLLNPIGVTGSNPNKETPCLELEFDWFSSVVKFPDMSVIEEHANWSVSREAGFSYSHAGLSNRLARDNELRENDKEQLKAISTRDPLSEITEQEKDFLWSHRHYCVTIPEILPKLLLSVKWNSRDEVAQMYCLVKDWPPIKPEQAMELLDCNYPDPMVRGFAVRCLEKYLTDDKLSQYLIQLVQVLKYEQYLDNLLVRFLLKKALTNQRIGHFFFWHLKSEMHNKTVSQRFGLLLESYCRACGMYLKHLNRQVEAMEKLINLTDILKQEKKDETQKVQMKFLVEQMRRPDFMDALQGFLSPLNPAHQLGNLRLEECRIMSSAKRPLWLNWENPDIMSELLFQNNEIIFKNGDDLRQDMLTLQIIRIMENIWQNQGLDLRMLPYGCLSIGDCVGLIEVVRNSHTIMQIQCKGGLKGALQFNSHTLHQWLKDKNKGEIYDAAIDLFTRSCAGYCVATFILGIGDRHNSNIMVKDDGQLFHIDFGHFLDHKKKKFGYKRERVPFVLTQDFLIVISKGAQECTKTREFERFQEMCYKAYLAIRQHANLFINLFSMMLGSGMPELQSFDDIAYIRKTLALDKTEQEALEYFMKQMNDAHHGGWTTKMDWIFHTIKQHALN
T1 sequence (P27986 whole entry partner): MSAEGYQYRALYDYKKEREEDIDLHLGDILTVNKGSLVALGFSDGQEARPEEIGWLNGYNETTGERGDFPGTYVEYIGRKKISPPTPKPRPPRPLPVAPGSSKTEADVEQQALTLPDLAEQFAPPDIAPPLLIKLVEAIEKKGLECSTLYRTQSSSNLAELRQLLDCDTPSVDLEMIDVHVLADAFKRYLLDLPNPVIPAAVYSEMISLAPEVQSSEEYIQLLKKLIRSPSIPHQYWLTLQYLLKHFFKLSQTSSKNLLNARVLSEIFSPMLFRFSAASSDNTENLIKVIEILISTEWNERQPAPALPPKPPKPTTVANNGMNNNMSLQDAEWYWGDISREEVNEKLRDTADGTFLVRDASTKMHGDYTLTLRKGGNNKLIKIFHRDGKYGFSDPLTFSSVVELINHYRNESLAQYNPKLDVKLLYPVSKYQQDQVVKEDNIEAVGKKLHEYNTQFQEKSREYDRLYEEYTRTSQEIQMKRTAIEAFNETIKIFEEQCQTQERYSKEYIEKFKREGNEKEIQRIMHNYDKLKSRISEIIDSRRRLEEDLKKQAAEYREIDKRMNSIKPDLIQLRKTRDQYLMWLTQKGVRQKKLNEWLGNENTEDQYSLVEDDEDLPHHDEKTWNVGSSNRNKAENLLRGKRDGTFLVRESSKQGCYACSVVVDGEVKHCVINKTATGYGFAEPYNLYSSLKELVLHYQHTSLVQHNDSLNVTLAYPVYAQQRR

As to “N-methyl-1-phenyl-N′-((6-pyridin-3-yl) imidazo[1,2-a]pyridine-3-yl) methylene)benzenesulfonohydrazide [Example 28]”, the 50% inhibitory concentration (IC50) is > 10000 nM in experiment [1] and 0.001 to 5 µM in experiment [2].

With `Cc1ccc(F)cc1S(=O)(=O)N(C)/N=C/c1cnc2ccc(-c3cc4ccccc4[nH]3)cn12` [Example 115, (E)-N′-((6-(1H-indol-2-yl)imidazo[1,2-a]pyridin-3-yl)methylene)-5-fluoro-N,2-dimethylbenzenesulfonohydrazide], the half-inhibitory concentration (IC50) in experiment [3] is 0.01 to 0.5 µM; in experiment [4] it was 5000 to 10000 nM; in experiment [1] (Homo sapiens), 5000 to 10000 nM; in experiment [2] (Monocyte), ≥ 5 µM.

Take `Cc1cc(-c2cccnc2)cn2c(/C=N/N(C)S(=O)(=O)c3ccc(F)c(C#N)c3)cnc12` [Example 105, (E)-3-cyano-4-fluoro-N-methyl-N′-((8-methyl-6-(pyridin-3-yl)imidazo[1,2-a]pyridin-3-yl)methylene)benzenesulfonohydrazide]: the IC50 in experiment [2] (Monocyte) was in the range of 0.001 to 5 µM; in experiment [5], 1 to 1000 nM.

For the compound `COc1ccc(F)cc1S(=O)(=O)N(C)/N=C/c1cnc2ccc(-c3cccnc3)cn12` [Example 45, (E)-5-fluoro-2-methoxy-N-methyl-N′-((6-(pyridin-3-yl)imidazo[1,2-a]pyridin-3-yl)methylene)benzenesulfonohydrazide], the IC50 in experiment [6] fell in the range of 10 to 5000 nM; in experiment [7] it was 10 to 5000 nM; in experiment [2] (Monocyte) it was 0.001 to 5 µM; in experiment [5] it was 1 to 1000 nM.

Consider `CN(N=Cc1cnc2ccc(-c3cccnc3)cn12)S(=O)(=O)c1cc(C(F)(F)F)cc(C(F)(F)F)c1` [Example 23, N-methyl-N′-((6-(pyridine-3-yl)imidazo[1,2-a]pyridine-3-yl)methylene)-3,5-bis(trifluoromethyl)benzenesulfonohydrazide], for which the 50% inhibitory concentration (IC50) in experiment [8] is 10 to 5000 nM; in experiment [3], 0.01 to 0.5 µM; in experiment [6] it was 10 to 5000 nM; in experiment [7], 10 to 5000 nM; in experiment [2] (Monocyte), 0.001 to 5 µM. Further, the inhibition at 1 µM in experiment [4] (setting [9]) was 30 to 50%.

In the case of `Cc1ccc(F)cc1S(=O)(=O)N(C)/N=C/c1cnc2c(C)cc(-c3cccnc3)cn12` [Example 100, (E)-5-Fluoro-N,2-dimethyl-N′-((8-methyl-6-(pyridin-3-yl)imidazo[1,2-a]pyridin-3-yl)methylene)benzenesulfonohydrazide], the IC50 fell in the range of 10 to 5000 nM in experiment [8], 0.01 to 0.5 µM in experiment [3], 10 to 5000 nM in experiment [6] and 10 to 5000 nM in experiment [7].

With `CN(N=Cc1cnc2ccc(-c3cccnc3)cn12)S(=O)(=O)c1cccc(Cl)c1F` [Example 17, 3-Chloro-2-fluoro-N-methyl-N′-((6-(pyridine-3-yl)imidazo[1,2-a]pyridine-3-yl)methylene) benzenesulfonohydrazide], the half-inhibitory concentration (IC50) in experiment [3] lay in the range of 0.01 to 0.5 µM; in experiment [2] (Monocyte) it was 0.001 to 5 µM. Moreover, the inhibition at 1 µM in experiment [4] (setting [9]) fell in the range of 30 to 50%.

In the case of `CN(N=Cc1cnc2ccc(-c3cccnc3)cn12)S(=O)(=O)c1ccc(F)c(F)c1` [Example 15, 3,4-difluoro-N-methyl-N′-((6-(pyridine-3-yl)imidazo[1,2-a]pyridine-3-yl)methylene) benzenesulfonohydrazide], the concentration for half-maximal inhibition (IC50) fell in the range of 0.5 to 1 µM in experiment [3] and 100 to 5000 nM in experiment [1] (Homo sapiens). For the same compound, the inhibition at 1 µM in experiment [4] (setting [9]) is 30 to 50%.

Take `Cc1cc(S(=O)(=O)N(C)N=Cc2cnc3ccc(-c4cccnc4)cn23)ccc1Br` [Example 22, 4-Bromo-N, 3-dimethyl-N′-((6-(pyridine-3-yl)imidazo[1,2-a]pyridine-3-yl)methylene) benzenesulfonohydrazide]: the values for the IC50 in experiment [3], in experiment [1] (Homo sapiens) and in experiment [2] (Monocyte) were 0.01 to 0.5 µM, 100 to 5000 nM and ≥ 5 µM, respectively.

For `Oc1cccc(-c2nc(N3CCOCC3)c3oc4ncccc4c3n2)c1` [PI-103, reference compound], 0.1 µM produced 80% inhibition in experiment [3] (at 100 nM). In experiment [4] (read-out: % Inhibition of mTOR activity at 1 μM (number, standard)), the inhibition at 1 µM came out at 50%.

For `CCN(/N=C/c1cnc2ccc(-c3cccnc3)cn12)S(=O)(=O)c1cc([N+](=O)[O-])ccc1C` [Example 84], the concentration for half-maximal inhibition (IC50) in experiment [3] lay within 0.01 to 0.5 µM; in experiment [2] (Monocyte) it was 0.001 to 5 µM. In experiment [4] (setting [9]), the inhibition at 1 µM was 30 to 50%.

As to `CN(N=Cc1cnc2ccc(-c3cccnc3)cn12)S(=O)(=O)c1ccc(Br)cc1` [Example 8, 4-Bromo-N-methyl-N′-((6-(pyridine-3-yl)imidazo[1,2-a]pyridine-3-yl)methylene)benzenesulfonohydrazide], in experiment [4] (setting [9]), the inhibition at 1 µM was 30 to 50%. This compound also had a concentration for half-maximal inhibition (IC50) in experiment [1] (Homo sapiens) of 100 to 5000 nM.
